In assay [1] the test system is Meg-01 cells. In words: Reactive oxygen species production in Meg-01 cells (carboxy-H2DCFDA, MitoSOX Red). Format: cell-based, human. As to conditions: Meg-01 cells, 1 h and 6 h; for change in percentage of cells generating mitochondrial superoxide (MitoSOX Red): 10 μM. On the procedure:
Ten μM carboxy-H2DCFDA was added to cells for 20 min at RT. The cells were washed and immediately analyzed by flow cytometry. Five μM of MitoSOX Red dye in HBSS containing Mg^2+ and Ca^2+ was added to the cells for 15 min at 37° C. The cells were washed in HBSS and analyzed by flow cytometry.

The target of assay [2] is T1, PPARγ (Homo sapiens, UniProt P37231).
T1 construct: Meg-01 cells were plated at a density of […] cells per well in a E-well plate and transfected; endogenous in cells; host or cells: Meg-01 cells
T1 sequence (P37231 1-505): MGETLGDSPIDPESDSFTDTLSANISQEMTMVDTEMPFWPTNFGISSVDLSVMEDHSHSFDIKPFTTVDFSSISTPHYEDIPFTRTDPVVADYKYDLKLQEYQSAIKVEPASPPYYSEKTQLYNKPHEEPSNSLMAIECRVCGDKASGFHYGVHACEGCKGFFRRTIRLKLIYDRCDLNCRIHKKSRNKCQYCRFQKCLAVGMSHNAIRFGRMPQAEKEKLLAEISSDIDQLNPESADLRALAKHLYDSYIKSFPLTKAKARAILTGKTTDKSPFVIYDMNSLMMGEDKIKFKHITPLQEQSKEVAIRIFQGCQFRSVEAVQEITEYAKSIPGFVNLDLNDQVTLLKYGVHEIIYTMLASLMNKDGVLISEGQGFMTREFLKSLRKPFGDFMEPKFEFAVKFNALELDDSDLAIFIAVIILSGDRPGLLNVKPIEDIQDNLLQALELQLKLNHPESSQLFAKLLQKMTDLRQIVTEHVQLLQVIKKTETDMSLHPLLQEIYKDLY
The assay is described as follows: PPARγ gene reporter analysis (PPRE-luciferase) in Meg-01 cells. As to conditions: 10 μM, 24 h after ligand treatment. Format: cell-based. The procedure:
Meg-01 cells were plated at a density of […] cells per well in a […] and transfected, using lipofectamine LTX (Invitrogen), with a PPRE (Peroxisome Proliferator Response Element)-luciferase reporter plasmid containing three copies of the ACO-PPRE (a gift from Dr. B. Seed, Massachusetts General Hospital, Boston, Mass.). […] Transfection efficiency was determined by transfecting the cells with green fluorescent protein (GFP) plasmid and determining the percentage of cells that were GFP+ by flow cytometry. […] Luciferase activity was assessed 24 h after ligand treatment using the Promega Luciferase Assay System, and relative light units (RLU) were determined using a Lumicount Microplate Luminometer (Packard Instrument Co., Meriden, Conn.).

Assay [3] relates to Meg-01 cells. In words: Platelet production from Meg-01 cells (flow cytometry). As to conditions: Meg-01 cells, 10 μM, 24 h. It is filed as cell-based, human. The procedure:
Meg-01 and M07e cells were purchased from the American Type Culture Collection (Rockville, Md.) and Dami cells were a generous gift from Dr. Patricia J. Simpson-Haidaris (University of Rochester). All cells were cultured in RPMI-1640 tissue culture medium (Invitrogen) supplemented with 5% fetal bovine serum (FBS; Invitrogen), 10 mM HEPES (N-2-hydroxyethylpiperazine-N′-2-ethanesulfonic acid; Sigma), 2 mM L-glutamine (Invitrogen), 4.5 g/L glucose (Invitrogen), and 50 μg/mL gentamicin (Invitrogen). M07e cells were also supplemented with 100 ng/mL of granulocyte monocyte-colony stimulating factor (GM-CSF, R&D Systems). All treatments were performed in normal growth media. Dimethyl sulfoxide (DMSO) was used as a vehicle (control) in the experiments described below.
Platelets were isolated from megakaryocytes by centrifugation at 150 xg for 10 min. Supernatants underwent sequential centrifugation (500 xg for 10 min and 1000×g for 10 min). The remaining platelet pellet was fixed then permeabilized with a CD61 or CD41 antibody. 7-AAD (BD Pharmingen) was added for 10 min before analyzing the cells by flow cytometry. Platelets were identified using three well-described parameters (Patel et al., “The Biogenesis of Platelets from Megakaryocyte Proplatelets,” J Clin Invest 115:3348-3354 (2005); Breton-Gorius et al., “Expression of Platelet Proteins During the In Vitro and In Vivo Differentiation of Megakaryocytes and Morphological Aspects of Their Maturation,” Semin Hematol 23:43-67 (1986); Ogura et al., “Establishment of a Novel Human Megakaryoblastic Leukemia Cell Line, MEG-01, With Positive Philadelphia Chromosome,” Blood 66:1384-1392 (1985) and Franks et al., “A Fluorescence Microscopy Method for Quantifying Levels of Prostaglandin Endoperoxide H Synthase-1 and CD-41 in MEG-01 Cells,” Biol Proced Online 3:54-63 (2001), each of which is hereby incorporated by reference in its entirety), size (using normal human platelets as a control), presence of CD61 or CD41 and lack of DNA as determined by the absence of 7-AAD staining Ten thousand platelet events were collected and platelets were quantified by rate (platelet events/second) (Chung et al., “Platelet Activation in Acute, Decompensated Congestive Heart Failure,” Thromb Res 120:709-713 (2007), which is hereby incorporated by reference in its entirety.
A 19 by target sequence was selected to knock down PPARγ. PPARγ was cloned downstream of the RNA polymerase III U6 promoter and subcloned into a FG12 lentiviral vector which expresses green fluorescent protein (GFP) under the Ubiquitin C promoter. HEK 293 cells expressing this siRNA PPARγ had reduced PPARγ protein levels. To make the lentivirus, HEK 293 cells were co-transfected with 3 plasmids: the envelope vector (CMV-VSVG), the transfer vector (FG12-shRNAPPAR), and the packaging construct (pCMVΔ89.2 (gag/pol proteins)). Viral supernatants were collected every 8 h for 2 days and concentrated by ultracentrifugation at 50,000×g for 2 h at 4° C. using a Beckman SW 28 rotor. Viral titers were determined by infection of HeLa cells with serial dilutions of the viral stocks. Meg-01 cells were infected at a multiplicity of infection (MOI) of 20. After 48 h, approximately 56% of the PPARγ siRNA cells were transduced as determined by flow cytometry. The GFP positive (+) cells were then sorted by FACS and grown in RPMI with 5% FBS.

In assay [4] the test system is C57BL/6 mice. The assay is described as follows: Circulating platelet number in unirradiated mice. As to conditions: unirradiated C57BL/6 mice, 1 mg/kg IV four consecutive days, d 4. It is filed as in vivo, mouse (C57BL/6). On the procedure: Seven or 8-week-old male C57BL/6 mice (Jackson Laboratories) were either exposed to 5 Gy cesium (Cs^137) total body irradiation (TBI) using a Model 8114 6000 Curie Shepherd Cs^137 irradiator (approximately 3200 Curie sealed Cs^137 source) with a dose rate of […] or left unexposed. Mice (n=4) received intravenous injections of vehicle (8% DMSO) or 15d-PGJ2 (1 mg/kg) or CDDO-Me (250 μg/kg) for 4 consecutive days from day 1 (days 1, 2, 3 and 4 post-irradiation). Blood was obtained from the aorta or the orbital sinus. Platelets were counted prior to radiation exposure and after radiation exposure on day 10, day 22, and day 31 in Example 7, or days 4, 10, 16, and 21 in Example 9 using the Heska® CBC-Diff™ Veterinary Analyzer (Fort Collins, Colo.). Data are expressed as average platelet counts from two separate experiments. For the unirradiated mice, platelets were counted on day 4, day 10, and day 15 in Example 7 or on the same days in Example 9.

With `CCCCC/C=C\C=C1\C(=O)CC[C@@H]1C/C=C\CCCC(=O)O` [9,10 dihydro-15d-PGJ2, reference compound], in assay [1], the “change in percentage of cells generating mitochondrial superoxide (MitoSOX Red)” value is given as “failed to increase the percentage of cells generating mitochondrial superoxide” and the “change in percentage of cells generating ROS (carboxy-H2DCFDA)” value is recorded as “failed to increase the percentage of cells generating ROS”. In assay [2], the “PPARγ activation (PPRE-luciferase activity)” value is “activated PPARγ”. Also, the platelet production result in assay [3] is given as “failed to enhance platelet production”.

On to `CCCCC/C=C\C=C1\C(=O)C[C@@H](O)[C@H]1C/C=C\CCCC(=O)O` [15d-PGD2, 15-deoxy-Δ^12,14-PG22, reference compound], for which the “levels of circulating platelets on d 4” value in assay [4] is listed as “significant increase in the levels of circulating platelets”. In addition, in assay [1], the “change in percentage of cells generating mitochondrial superoxide (MitoSOX Red)” value is listed as “failed to increase the percentage of cells generating mitochondrial superoxide” and the “change in percentage of cells generating ROS (carboxy-H2DCFDA)” value is on record as “failed to increase the percentage of cells generating ROS”. Also, the platelet production entry in assay [3] was “failed to enhance platelet production”.

The record behind these values is patent US9012439B2, “Use of electrophilic compounds for inducing platelet production or maintaining platelet function” (University of Rochester, priority 2007, dated 2015).
